The results in this text go back to patent US20180055915A1, “COMPOSITIONS AND METHODS FOR TREATING PROSTATE CANCER” (UNIVERSITY OF ROCHESTER, priority 2016, published 2018).

The term IC50 denotes the concentration at which inhibition is half-maximal.

Assay [1] concerns AR. Briefly: AR protein expression/degradation in CRPC cells (western blot). Format: cell-based. The procedure:
To further dissect the mechanism(s) why Cis can decrease ARv7 (and AR) protein expression, first assayed was the Cis effects on ARv7 (and AR) protein stability with protein biosynthesis inhibitor, cycloheximide (CHX) and proteasome inhibitor MG132 in EnzR2-CWR22Rv1 cells.
(§1) For protein degradation, EnzR C4-2 cells were treated with 1 μg/mL Cisplatin for 6 hr. Cycloheximide or MG132 was added for another 4 hrs. For ubiquitination, human kidney epithelial HEK293T cells were grown in DMEM media with 10% FCS. Cells were plated at ˜60% confluency and pGFP-ubiquitin, pAR were transiently transfected into cells using CaCl2 reagent. After 48 hrs. of transfection, cells were treated with 1 μg/mL Cisplatin for 6 hrs. […], MG132, was added for another 4 hrs. Cell extracts were analyzed for AR degradation or AR-ubiquitination by using western blot.
(§2) Cells were lysed in lysis buffer and proteins (50 μg) were separated on 10% SDS/PAGE gel and then transferred onto PVDF membranes (Millipore, Billerica, Mass.). After blocking membranes with 5% milk, they were incubated with appropriate dilutions of specific primary antibodies (anti-AR (N-20), anti-SF2, anti-GFP, anti-GAPDH, anti-a-tubulin). The blots were incubated with HRP-conjugated secondary antibodies and visualized using ECL system (Thermo Fisher Scientific, Rochester, N.Y.).
Background: Immunoblotting shows a protein as a band on a membrane.

For assay [2], the system named is estrogen receptor b (ERb). The assay is described as follows: Estrogen receptor b expression. In kind it is cell-based.
The test system of assay [3] is EnzR1-C4-2 cells. The assay is described as follows: MTT cell proliferation assay, EnzR1-C4-2. Format: cell-based. On the procedure:
(§3) Cells were seeded in 24-well plates (5×10^3 cells/500 μL media per well) and cultured for 0, 2, 4 and 6 days. Cells were harvested and cell numbers and absorbance were calculated and recorded after using yellow tetrazolium MTT (3-(4, 5-dimethylthiazolyl-2)-2,5-diphenyltetrazolium bromide agent.
A general note: Tetrazolium dyes change colour on reduction, which living cells bring about.

For assay [4], the system named is EnzR2-CWR22Rv1 cells. The assay is described as follows: MTT cell proliferation assay, EnzR2-CWR22Rv1. Format: cell-based. To be noted: FIG. 2E. The procedure: as §3
Assay [5] relates to cPARP. Briefly: Cell apoptosis by cPARP level. In kind it is cell-based.
Assay [6] deals with ARv7 mRNA. Briefly: ARv7 mRNA expression (real-time PCR). In kind it is cell-based. On the procedure:
(§4) Total RNAs were isolated using Trizol reagent (Invitrogen, Grand Island, N.Y.). 2 μg of total RNA was subjected to reverse transcription using Superscript III transcriptase (Invitrogen). Quantitative real-time PCR (qRT-PCR) was conducted using a Bio-Rad CFX96 system with SYBR green to determine the mRNA expression level of a gene of interest. Expression levels were normalized to the expression of GAPDH.
For orientation: Real-time PCR tracks product formation cycle by cycle.

In assay [7] the test system is Malat1. The assay is described as follows: Malat1 mRNA expression (real-time PCR). In kind it is cell-based. To be noted: EnzR1-C4-2 cells, FIG. 4F. The procedure:
as §4

Assay [8] deals with SF2. The assay is described as follows: SF2 protein level. In kind it is cell-based. The procedure: as §2
Assay [9] deals with AR-ubiquitin complex. The assay is described as follows: AR-ubiquitination immunoprecipitation in 293T cells. Format: cell-based, human. To be noted: 293T cells with AR and ubiquitin-GPF, FIG. 4D. The procedure:
Then examined was whether ubiquitination involves in ARv7 (and AR) degradation. First added were AR and ubiquitin-GPF in 293T cells, and then applied the immunoprecipitation assay to examine Cis effect on AR-ubiquitination.
as §1

Assay [10] relates to AR mRNA. Briefly: AR mRNA expression (real-time PCR). To be noted: FIG. 5A. Format: cell-based. The procedure:
as §4

The test system of assay [11] is AR promoter. Briefly: AR promoter luciferase assay (pAR-luc) in EnzR2-CWR22Rv1 cells. Format: cell-based. To be noted: 1 ug/mL Cis, FIG. 5B. The source says: In addition to function via altering the AR-ubiquitination to decrease ARv7 (and AR) protein expression and modulating the Malat1/SF2 RNA splicing complex to decrease ARv7 mRNA biosynthesis/expression, it is interesting to see the potential 3rd molecular mechanism at transcriptional regulation to alter the AR expression for Cis to decrease ARv7 mRNA expression. […] A 3.6 kb AR promoter was then constructed into pGL3 luciferase vector (pAR-luc) and transfected pAR-luc into EnzR2-CWR22Rv1 cells for luciferase assay.

Assay [12] concerns EnzR2-CWR22Rv1 cells. Briefly: Orthotopic EnzR xenograft in castrated nude mice. Format: in vivo.
Where [13] appears, read: EnzR3-C4-2 cells, Cis at 1 ug/mL, FIG. 2J.
Where [14] appears, read: EnzS1-C4-2 cells, Cis at 1-2 ug/mL, FIG. 2I.

SF2, sequence (Q07955 whole entry): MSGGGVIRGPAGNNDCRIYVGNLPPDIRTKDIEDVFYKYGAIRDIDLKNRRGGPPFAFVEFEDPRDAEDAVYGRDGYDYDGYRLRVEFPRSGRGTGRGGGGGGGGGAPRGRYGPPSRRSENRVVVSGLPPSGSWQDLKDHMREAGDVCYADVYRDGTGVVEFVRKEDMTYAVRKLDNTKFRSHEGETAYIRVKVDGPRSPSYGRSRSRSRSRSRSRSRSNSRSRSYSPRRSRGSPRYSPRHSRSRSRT

Take “(SP-4-2)-diamminedichloroplatinum(II) [Cis]”: the AR expression entry in assay [1] (EnzR1-C4-2 cells, FIG. 1B) is listed as “could suppress the AR”; in assay [1] (EnzS1-C4-2 cells, FIG. 1A), “could suppress the AR”. The AR protein degradation result in assay [1] (EnzR2-CWR22Rv1 cells, after 6 hrs treatment, FIG. 4A) is reported as “could degrade ARv7 (and AR)”. Moreover, the AR degradation result in assay [1] (setting [13]) is on record as “may degrade AR”; in [1] (setting [14]), “could degrade AR”. Further, the ERb expression result in assay [2] is “little effect to decrease”. Further, the “suppression of cell growth” value in assay [3] (20 uM Enz combined with 2 ug/mL (6.6 uM) Cis, FIG. 2B) is listed as “could suppress EnzR1-C4-2 cell growth”. Further, the “IC50 (cell growth)” value is approximately 5 µg/mL in [3] (Cis combined with 20 uM Enz, FIG. 2C) and 5 µg/mL in [4]. Besides, the IC50 in assay [3] (Cis combined with 20 uM Enz, FIG. 2C, read-out: IC50 (cell growth)) is approximately 16.5 µM; in assay [4] (read-out: IC50 (cell growth)) it was 16.5 µM. The “cell apoptosis (cPARP)” value in assay [5] (setting [13]) and in assay [5] (setting [14]) was “little change in cPARP” each time. Besides, the “ARv7 mRNA expression” value in assay [6] (Enz-S1-C4-2 cells, Enz plus Cis (0.2 ug/mL), FIG. 3D) is recorded as “suppressed the Enz-increased ARv7 significantly”; in [6] (EnzR1-C4-2 cells, FIG. 4E), “decreased in dose-dependent manner”. Also, the “Malat1 mRNA expression” value in [7] is recorded as “decreased in dose-dependent manner”. Besides, the SF2 protein expression result in [8] was “may decrease SF2 protein expression in a dose-dependent manner”. In addition, the AR-ubiquitin complex entry in assay [9] is recorded as “may increase the AR-ubiquitin complex”. Moreover, the “AR mRNA” value in [10] is reported as “could also decrease AR mRNA in a dose-dependent manner”. For the same substance, the “AR promoter activity (pAR-luc luciferase)” value in assay [11] was “can also decrease AR mRNA expression at transcriptional level via altering AR promoter activity”. In assay [12] (Enz 3.5 mg/kg every other day i.p. with vs without Cis 3.5 mg/kg weekly i.v., 3 weeks), the tumor progression result is “can increase/restore the Enz sensitivity to further suppress the EnzR3-C4-2B tumor progression”. For the same substance, the “tumor expression of ARv7 (and AR), Malat1 and SF2 (immunohistochemistry)” value in [12] (tumor received Cis+Enz) is “lower expression of ARv7 (and AR), as well as Malat1 and SF2”.
